Assay results from US20240352069A1, “SYNTHETIC PEPTIDE, AND COSMETIC COMPOSITION OR PHARMACEUTICAL COMPOSITION AND APPLICATION THEREOF” (SHENZHEN WINKEY TECHNOLOGY CO., LTD., priority 2021, published 2024).
Residues, ends and D or L forms follow the SMILES beside them. *: point of attachment. CH2CO2tBu = CC(C)(C)OC(=O)C*; Carboxymethyl = O=C(O)C*; Allyl = C=CC*; X1 = CCCCCCS*; SEt = CCS*

Assays:
[1] = Stability of powders under high humidity (HPLC purity); format: physicochemical; details: powder; for High humidity, Day 10 (purity): RH92.5%, 25° C., 10 days
Description: The powder samples of peptides (3)-(7) were placed under high humidity (RH92.5%, 25° C.) conditions for 10 days, and the purity changes of each sample were investigated by HPLC.

[2] = Stability of powders at 25° C. and 40° C. (HPLC purity over time)
Description: (§4) In Example 29, the HPLC chromatographic separation conditions were as follows: • Chromatographic column: Octadecyl bonded silica gel as filler 4.6*250 mm, 5 m • Mobile phase A: Acetonitrile (containing 0.09% trifluoroacetic acid) • Mobile phase B: 0.1% trifluoroacetic acid • Diluent: water • Flow rate: 1.0 ml/min; • Column temperature: 35° C.; • Detection wavelength: 215 nm; • Injection volume: 10 μl; • Running time: 32 min • Gradient elution table:
(§5) The test solution: Take an appropriate amount of this product and add water to dissolve and dilute to make a solution containing 1 mg per 1 ml.

[3] = Stability of aqueous solutions (HPLC purity over time); format: physicochemical
Description: as §4, §5

[4] = test system: HaCaT cells; assay: Cell proliferation experiment (MTT), HaCaT; format: cell-based, human; details: 24 hours
Description: (§1) Human keratinocytes (HaCaT) were purchased from the Kunming Cell Bank of the Type Culture Collection Committee of the Chinese Academy of Sciences, and mouse skin fibroblasts (NIH3T3) were purchased from the Shanghai Cell Bank of the Type Culture Collection Committee of the Chinese Academy of Sciences.
(§2) • a) Take cells in good condition in exponential growth phase, add 0.25% trypsin digestion solution, digest to make adherent cells fall off, count 1-4×10^5 cells/mL, and make cell suspension; • b) Appropriately dilute 2000 cells/well of the cell suspension and inoculate it on a 96-well plate at 200 μL/well, and culture it in a constant temperature CO2 incubator for 24 hours. • c) Change the medium, add the sample to be tested, 20 μL/well, and incubate for 24 hours; • d) Add the MTT reagent into the 96-well plate, 20 μL/well, and react in the incubator for 4 hours; • e) Aspirate the supernatant, add DMSO, 150 μL/well, and shake on a plate shaker for 5 minutes; • f) After 5 minutes, use a microplate reader to read the reference OD values at 490 nm and 630 nm wavelengths, and calculate the cell viability:
(§3) MTT method is a method to detect cell survival and growth. The measured OD value is directly proportional to cell activity. The larger the OD value, the higher the cell activity.

[5] = test system: NIH3T3 cells; assay: Cell proliferation experiment (MTT), NIH3T3; format: cell-based, mouse; details: 24 hours
Description: as §1, §2, §3

[6] = test system: HaCaT cells; assay: UVB light damage repair experiment (MTT), HaCaT; format: cell-based, human; details: UVB irradiated, 12.5-100 ppm, 24 hours
Description: as §1
Take cells in good exponential growth phase, add 0.25% trypsin digestion solution, digest to make adherent cells fall off, count 1×10^5-4×10^5 cells/mL, and make cell suspension.
Cells were seeded into 96-well plates at 10,000 cells/well, and the UVB photodamage model was established when the cells reached about 80% confluent. […]
After 24 hours, add 22 μL of 5 mg/mL MTT to each well, place in an incubator and incubate for 4 hours, discard the original solution, and add 150 μL/well of DMSO. After 5 minutes, use a microplate reader to read the reference OD values at 490 nm and 630 nm wavelengths.
By establishing a UVB light-damaged cell model, administering 24 hours after ultraviolet light irradiation, and using the MTT method to detect cell proliferation activity, the ability of the peptide of the present invention to repair light-damaged cells was evaluated.

[7] = test system: HaCaT cells; assay: Scratch test (cell migration); format: cell-based, human; details: 24 hours after scratch; peptides 100 ppm, EGF 50 U/mL; vs normal control group
Description: Human keratinocytes (HaCaT) were purchased from the Kunming Cell Bank of the Type Culture Collection Committee of the Chinese Academy of Sciences.
The cryopreserved HaCaT cells were cultured, subcultured to about 5 passages according to the ratio of 1:2, and the cells with better growth were selected as the experimental objects. Cells were seeded in a 12-well plate at a density of 200,000 cells/well, with 2 mL of cell suspension in each well. After the cells adhered to the wall, the medium was replaced with 0.5% to 1% fetal bovine serum to maintain the cells for 24 hours to synchronize them. change. Scratch with a sterilized pipette tip, wash off the dropped cells with PBS, add the sample to be tested, continue to incubate in a 37° C., 5% CO2 incubator, and place it under an optical microscope after 24 hours to analyze the wound healing area.
The cell scratch migration test can reflect the proliferation and repair ability of the cells.

[8] = 12.5 ppm-100 ppm, vs PBS blank control

## CCC(C)C(NC(=O)CNC(=O)C(CCSC)NC(=O)C(CCCNC(=N)N)NC(=O)C(Cc1ccccc1)NC(=O)C1CCCN1C(=O)C(C)N)C(=O)NC(CSCC(=O)OC(C)(C)C)C(=O)NC(C(=O)NC(C(=O)NC(CC(N)=O)C(=O)O)C(C)O)C(C)O (stereo not shown) [(4)] (H-APFRMGIC(CH2CO2tBu)TTN-OH; configuration not given here)
[1]
  Day 0 (purity): 96.017%
  High humidity, Day 10 (purity): 93.962%

## H-Ala-Pro-Phe-Arg-Met-Gly-Ile-Cys-Thr-Thr-Asn-OH (H-APFRMGICTTN-OH) [Reference peptide A]
[2]; 25° C., Day 5
  powder (purity): 85.913%
[2]; 40° C., Day 5
  powder (purity): 57.503%
[2]; 40° C., Day 5, listed as reference peptide A
  powder (purity): 57.503%
[2]; powder, Day 0
  powder (purity): 88.030%
[3]; Day 8 at room temperature
  aqueous solution (purity): 80.880%
[3]; Day 18 at room temperature
  aqueous solution (purity): 72.693%
[3]; Day 18 at room temperature, listed as reference peptide A
  aqueous solution (purity): 72.693%
[3]; Solution, Day 0
  aqueous solution (purity): 88.030%
[3]; Solution, Day 0, listed as reference peptide A
  aqueous solution (purity): decreased significantly

## CCSSCC(NC(=O)C(NC(=O)CNC(=O)C(CCSC)NC(=O)C(CCCNC(=N)N)NC(=O)C(Cc1ccccc1)NC(=O)C1CCCN1C(=O)C(C)N)C(C)CC)C(=O)NC(C(=O)NC(C(=O)NC(CC(N)=O)C(=O)O)C(C)O)C(C)O (stereo not shown) [(5)] (H-APFRMGIC(SEt)TTN-OH; configuration not given here)
[1]
  Day 0 (purity): 97.482%
  High humidity, Day 10 (purity): 94.603%

## C=CCSCC(NC(=O)C(NC(=O)CNC(=O)C(CCSC)NC(=O)C(CCCNC(=N)N)NC(=O)C(Cc1ccccc1)NC(=O)C1CCCN1C(=O)C(C)N)C(C)CC)C(=O)NC(C(=O)NC(C(=O)NC(CC(N)=O)C(=O)O)C(C)O)C(C)O (stereo not shown) [Peptide (3)] (H-APFRMGIC(Allyl)TTN-OH; configuration not given here)
[4]; 12.5-100 ppm
  impact on the activity of HaCaT cells compared among peptides (1)-(5): greater impact on the activity of HaCaT cells
[4]; [8]
  effect on the activity of HaCaT cells (MTT): could both improve the activity of HaCaT cells, promote their proliferation
[1]
  Day 0 (purity): 97.605%
  High humidity, Day 10 (purity): 96.251%
[5]; 12.5-100 ppm
  impact on the activity of NIH3T3 cells compared among peptides (1)-(5): greater impact on the activity of NIH3T3 cells
[5]; [8]
  effect on the activity of NIH3T3 cells (MTT): could improve the activity of NIH3T3 cells and promote their proliferation
[6]
  effect on improving activity of photodamaged HaCaT cells compared among peptides (1)-(5): better effect on improving cell activity

## CCC(C)C(NC(=O)CNC(=O)C(CCSC)NC(=O)C(CCCNC(=N)N)NC(=O)C(Cc1ccccc1)NC(=O)C1CCCN1C(=O)C(C)N)C(=O)NC(CSCC(=O)O)C(=O)NC(C(=O)NC(C(=O)NC(CC(N)=O)C(=O)O)C(C)O)C(C)O (stereo not shown) [(7)] (H-APFRMGIC(Carboxymethyl)TTN-OH; configuration not given here)
[1]
  Day 0 (purity): 98.541%
  High humidity, Day 10 (purity): 97.863%

## EGF: epidermal growth factor (EGF), 50 U/mL, positive group in the scratch test
[7]
  scratch spacing (proliferation and migration): spacing was significantly shortened

## CCCCCCSSCC(NC(=O)C(NC(=O)CNC(=O)C(CCSC)NC(=O)C(CCCNC(=N)N)NC(=O)C(Cc1ccccc1)NC(=O)C1CCCN1C(=O)C(C)N)C(C)CC)C(=O)NC(C(=O)NC(C(=O)NC(CC(N)=O)C(=O)O)C(C)O)C(C)O (stereo not shown) [(6)] (H-APFRMGIC(X1)TTN-OH; configuration not given here)
[1]
  Day 0 (purity): 96.235%
  High humidity, Day 10 (purity): 95.719%
